In ChEMBL document CHEMBL1201862, “PubChem BioAssay data set” (2004):
The source made the active and inactive calls.

What was measured:
[1] = SAR analysis of small molecule inhibitors of Apaf-1 using a LZ-Caspase-9/Caspase-3 Fluorescent Selectivity assay - Set 2.; type: functional; conditions: read-out: IC50_Mean
[2] = target: T1, Apoptotic protease-activating factor 1 (Homo sapiens, UniProt O14727); test: SAR analysis of small molecule Inhibitors of Apaf-1 in a Fluorescent assay - set 2.; type: functional; conditions: read-out: IC50_Mean
T1 sequence (O14727 whole entry): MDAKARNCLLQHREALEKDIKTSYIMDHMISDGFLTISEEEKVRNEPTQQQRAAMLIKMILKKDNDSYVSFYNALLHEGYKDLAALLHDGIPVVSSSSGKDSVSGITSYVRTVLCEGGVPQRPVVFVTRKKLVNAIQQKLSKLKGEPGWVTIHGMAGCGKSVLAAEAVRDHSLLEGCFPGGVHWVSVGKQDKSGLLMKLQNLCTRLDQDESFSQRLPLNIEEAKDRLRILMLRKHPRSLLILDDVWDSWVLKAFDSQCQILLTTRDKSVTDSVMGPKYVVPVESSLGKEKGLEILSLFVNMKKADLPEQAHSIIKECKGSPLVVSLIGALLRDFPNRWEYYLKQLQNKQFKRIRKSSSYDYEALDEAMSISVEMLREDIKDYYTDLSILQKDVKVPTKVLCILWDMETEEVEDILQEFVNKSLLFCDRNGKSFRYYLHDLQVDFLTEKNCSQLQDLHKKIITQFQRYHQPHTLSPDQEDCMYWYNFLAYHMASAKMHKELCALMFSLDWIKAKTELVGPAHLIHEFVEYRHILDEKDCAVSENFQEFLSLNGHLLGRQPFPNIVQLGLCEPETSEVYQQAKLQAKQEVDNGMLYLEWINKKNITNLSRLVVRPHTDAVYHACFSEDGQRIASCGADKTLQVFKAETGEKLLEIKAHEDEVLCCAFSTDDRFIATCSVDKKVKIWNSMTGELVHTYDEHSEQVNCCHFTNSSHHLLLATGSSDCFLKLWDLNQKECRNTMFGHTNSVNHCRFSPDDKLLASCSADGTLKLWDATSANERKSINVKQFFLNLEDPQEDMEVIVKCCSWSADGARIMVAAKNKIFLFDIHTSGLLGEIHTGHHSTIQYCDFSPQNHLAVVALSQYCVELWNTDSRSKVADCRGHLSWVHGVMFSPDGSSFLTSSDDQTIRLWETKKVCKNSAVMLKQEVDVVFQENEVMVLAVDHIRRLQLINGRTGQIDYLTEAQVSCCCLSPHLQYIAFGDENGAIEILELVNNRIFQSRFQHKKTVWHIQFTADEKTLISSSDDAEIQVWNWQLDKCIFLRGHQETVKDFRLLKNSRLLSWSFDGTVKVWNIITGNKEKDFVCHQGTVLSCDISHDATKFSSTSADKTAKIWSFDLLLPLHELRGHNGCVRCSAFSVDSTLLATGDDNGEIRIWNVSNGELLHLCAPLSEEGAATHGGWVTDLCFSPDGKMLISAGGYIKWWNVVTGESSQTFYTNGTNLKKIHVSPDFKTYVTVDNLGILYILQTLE

[3] = target: Cytochrome P450 3A4 (Homo sapiens, UniProt P08684);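 note: CYP3A4 tested as one member of a cytochrome P450 panel screen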
[4] = target: Wee1-like protein kinase (Homo sapiens, UniProt P30291); test: Navigating the Kinome. Panel member name: WEE1; type: functional
[5] = target: Cell division cycle 7-related protein kinase (Homo sapiens, UniProt O00311); type: functional;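 note: value obtained from a kinome-wide kinase panel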
[6] = target: Multidrug resistance protein CDR1 (Candida albicans, UniProt P43071); test: CaCDR1 efflux pump inhibitors in yeast, dose response, S. cerevisiae AD1-8u, singleplex, Cherry Pick1 hits (AID 588606); type: functional
[7] = system: Candida albicans; test: C. albicans growth inhibition with fluconazole, dose response, antifungal resistance reversal project, CaCi-2 strain, Alamar Blue, dry powder, set 2 (AID 488930); type: functional, organism-based
[8] = system: Candida albicans; test: growth inhibition of azole-resistant C. albicans, dose response, CaCi-8 strain, Alamar Blue, dry powder, set 2 (AID 488909); type: functional, organism-based
[9] = system: Candida albicans; test: fluconazole resistance reversal in C. albicans, dose response, CaCi-2 strain, Alamar Blue, dry powder, set 4 (AID 488943); type: functional, organism-based
[10] = system: Candida albicans; test: growth inhibition of resistant C. albicans, dose response, CaCi-8, fluconazole, Alamar Blue, dry powder (AID 488807); type: functional, organism-based
[11] = system: HEK293; test: SAR Analysis of small molecule inhibitors of B-cell specific antigen receptor-induced NF-kB activation in a HEK-293T cell line using a luminescence assay - Set 2. [Related pubchem assays (depositor defined):AID435022, AID435025, AID489021]; type: functional, cell-based; conditions: Homo sapiens
[12] = system: HEK293; test: cytotoxicity in HEK293T NF-kB-Luc cells, SAR follow-up, cytotoxicity control for NF-kB activator project, cell-based, resazurin fluorescence (AID 493251); type: functional; conditions: Homo sapiens
[13] = system: Jurkat; test: SAR Analysis of small molecule inhibitors of […] specific antigen receptor-induced NF-kB activation in a Jurkat cell line using a luminescence assay - Set 3. [Related pubchem assays (depositor defined):AID435022, AID435025, AID465]; type: functional, cell-based; conditions: Homo sapiens
[14] = target: T1, Apoptotic protease-activating factor 1; test: SAR analysis of small molecule inhibitors of Apaf-1 in a Fluorescent assay.; type: functional; conditions: read-out: IC50_Mean
[15] = target: T2, DNA dC->dU-editing enzyme APOBEC-3A (Homo sapiens, UniProt P31941); test: SAR analysis of small molecule inhibitors of APOBEC3A DNA Deaminase via a fluorescence-based single-stranded DNA deaminase assay - Set 2.; type: functional; conditions: read-out: IC50_Mean
[16] = target: T2, DNA dC->dU-editing enzyme APOBEC-3A; test: SAR analysis of small molecule inhibitors of APOBEC3A DNA Deaminase via a fluorescence-based single-stranded DNA deaminase assay.; type: functional; conditions: read-out: IC50_Mean
[17] = target: T3, DNA dC->dU-editing enzyme APOBEC-3G (Homo sapiens, UniProt Q9HC16); type: functional
[18] = target: T2, DNA dC->dU-editing enzyme APOBEC-3A; test: Dose Response confirmation of small molecule APOBEC3A DNA Deaminase Inhibitors via a fluorescence-based single-stranded DNA deaminase assay. [Related pubchem assays (depositor defined):AID493011, AID493024]; type: functional
[19] = target: T3, DNA dC->dU-editing enzyme APOBEC-3G; test: APOBEC3G deaminase inhibitors, SAR follow-up, biochemical, fluorescence, single-stranded DNA substrate (AID 602136); type: functional; conditions: read-out: IC50_Mean
[20] = target: T3, DNA dC->dU-editing enzyme APOBEC-3G; test: SAR analysis of small molecule inhibitors of APOBEC3G DNA Deaminase via a fluorescence-based single-stranded DNA deaminase assay - Set 2.; type: functional; conditions: read-out: IC50_Mean
[21] = system: Streptococcus sp. 'group A'; test: growth inhibition of control SK(-) GAS strain, dose response, counter-screen for streptokinase expression inhibitor project, luminescence, kanamycin, BacTiterGlo, confirmation (AID 1900); type: functional, organism-based
[22] = system: BJ; test: cytotoxicity toward Ras-transformed BJeLR fibroblasts, dose response, cell-based, alamar blue fluorescence, cherrypicked samples (AID 2631); type: functional; conditions: Homo sapiens;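 note: confirmatory dose-response assay in RAS-dependent BJ fibroblasts engineered with TERT, LT and ST, with cytotoxicity read by fluorescence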
[23] = system: BJ; test: cytotoxicity toward BJ-TERT fibroblasts, dose response, cell-based, RAS-independent, luminescence (AID 1933); type: functional; conditions: Homo sapiens
[24] = system: BJ; test: cytotoxicity toward BJ-TERT-LT-ST fibroblasts, dose response, cell-based, RAS-independent, luminescence (AID 1935); type: functional; conditions: Homo sapiens;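 note: BJ fibroblasts immortalized with TERT plus LT and ST oncogenes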
[25] = system: INS1; test: beta cell apoptosis inhibitors, cytokine rescue, dose response, luminescence, retest (AID 449756); type: functional, cell-based; conditions: Rattus norvegicus;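 note: cell death triggered by IL-1 beta plus TNF-alpha plus IFN-gamma mixture; protective hits raise ATP signal compared with cytokine alone wells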
[26] = cells; type: functional, cell-based
[27] = cells; type: functional, cell-based; remark: listed apart in the source
[28] = target: T4, Streptokinase A (Streptococcus pyogenes serotype M1, UniProt P10520); test: S. pyogenes streptokinase expression inhibitors, potency, dose response, plasminogen activation absorbance, OD405 (AID 1914); type: functional, Streptococcus pyogenes M1 GAS;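 note: secreted streptokinase activity via plasminogen activation per viability signal from cell pellet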
T4 sequence (P10520 whole entry): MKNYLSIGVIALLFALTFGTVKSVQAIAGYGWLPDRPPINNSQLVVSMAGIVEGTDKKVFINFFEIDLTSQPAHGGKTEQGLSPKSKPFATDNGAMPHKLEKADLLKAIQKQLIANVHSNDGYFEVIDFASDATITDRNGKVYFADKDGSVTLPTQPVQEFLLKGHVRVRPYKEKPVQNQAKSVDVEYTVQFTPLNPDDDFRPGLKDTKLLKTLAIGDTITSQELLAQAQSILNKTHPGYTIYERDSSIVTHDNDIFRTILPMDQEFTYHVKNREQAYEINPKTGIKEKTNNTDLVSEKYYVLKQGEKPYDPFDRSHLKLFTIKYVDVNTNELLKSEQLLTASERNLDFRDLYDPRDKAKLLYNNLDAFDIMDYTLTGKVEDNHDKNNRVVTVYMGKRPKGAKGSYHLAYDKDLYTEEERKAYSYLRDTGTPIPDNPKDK

[29] = cytotoxicity toward DRD oncogenic fibroblasts, dose response, cell-based, non-viral oncogenic, luminescence (AID 1934); type: functional; conditions: Homo sapiens
[30] = system: BJ; test: cells; type: functional, cell-based; conditions: Homo sapiens
[31] = system: Streptococcus; test: Group A Streptococcus viability loss, dose response, counter-screen for streptokinase expression inhibitor project, luminescence, BacTiterGlo (AID 1915); type: functional, organism-based;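 note: potency for reduction of bacterial viability or growth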
[32] = target: Latent membrane protein 1 (Human herpesvirus 4 (strain B95-8), UniProt P03230); test: TES1-eGFP NF-kB reporter inhibition versus Tet-On dsRED, dose response, selectivity assay for LMP1 NF-kB inhibitor project, imaging, HEK293T, dual-color eGFP/dsRED, cherry-picks (AID 588398); type: functional, cell-based
[33] = target: Vascular endothelial growth factor receptor 2 (Homo sapiens, UniProt P35968); type: functional
[34] = target: Macrophage colony-stimulating factor 1 receptor (Homo sapiens, UniProt P07333); type: functional;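 note: value comes from the Navigating the Kinome screening panel, CSF1R member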
[35] = target: Mitogen-activated protein kinase kinase kinase kinase 4 (Homo sapiens, UniProt O95819); type: functional
[36] = target: Tyrosine-protein kinase BTK (Homo sapiens, UniProt Q06187); type: functional
[37] = target: Focal adhesion kinase 1 (Homo sapiens, UniProt Q05397); type: functional;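 note: measured as one member of a kinome panel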
[38] = target: Tyrosine-protein kinase Lck (Homo sapiens, UniProt P06239); type: functional;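 note: lck was assayed as one member of a kinase panel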
[39] = target: Insulin-like growth factor 1 receptor (Homo sapiens, UniProt P08069); test: Navigating the Kinome. Panel member name: IGF1R; type: functional
[40] = target: Serine/threonine-protein kinase TAO1 (Homo sapiens, UniProt Q7L7X3); type: functional
[41] = target: Misshapen-like kinase 1 (Homo sapiens, UniProt Q8N4C8); type: functional;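 note: kinome panel screen with MINK as the panel member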
[42] = target: Tyrosine-protein kinase Fyn (Homo sapiens, UniProt P06241); type: functional

T3 sequence (Q9HC16 whole entry): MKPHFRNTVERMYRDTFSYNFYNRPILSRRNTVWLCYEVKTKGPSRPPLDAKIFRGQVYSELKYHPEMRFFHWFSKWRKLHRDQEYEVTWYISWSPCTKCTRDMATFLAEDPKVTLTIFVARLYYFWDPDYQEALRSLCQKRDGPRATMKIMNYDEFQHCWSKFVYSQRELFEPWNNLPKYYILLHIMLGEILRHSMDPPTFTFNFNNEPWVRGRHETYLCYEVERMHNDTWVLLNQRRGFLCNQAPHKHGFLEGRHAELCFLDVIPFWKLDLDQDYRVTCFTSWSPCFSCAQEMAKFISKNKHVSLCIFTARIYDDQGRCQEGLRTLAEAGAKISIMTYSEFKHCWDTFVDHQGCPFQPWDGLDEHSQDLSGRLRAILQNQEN
T2 sequence (P31941 whole entry): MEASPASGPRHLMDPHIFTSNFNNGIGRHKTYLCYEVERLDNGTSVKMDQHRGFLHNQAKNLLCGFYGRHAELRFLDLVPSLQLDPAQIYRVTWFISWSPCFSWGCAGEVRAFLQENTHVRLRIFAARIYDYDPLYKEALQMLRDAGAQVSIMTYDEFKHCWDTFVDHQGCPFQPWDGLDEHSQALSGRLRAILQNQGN
Chain of Focal adhesion kinase 1 (Q05397 whole entry): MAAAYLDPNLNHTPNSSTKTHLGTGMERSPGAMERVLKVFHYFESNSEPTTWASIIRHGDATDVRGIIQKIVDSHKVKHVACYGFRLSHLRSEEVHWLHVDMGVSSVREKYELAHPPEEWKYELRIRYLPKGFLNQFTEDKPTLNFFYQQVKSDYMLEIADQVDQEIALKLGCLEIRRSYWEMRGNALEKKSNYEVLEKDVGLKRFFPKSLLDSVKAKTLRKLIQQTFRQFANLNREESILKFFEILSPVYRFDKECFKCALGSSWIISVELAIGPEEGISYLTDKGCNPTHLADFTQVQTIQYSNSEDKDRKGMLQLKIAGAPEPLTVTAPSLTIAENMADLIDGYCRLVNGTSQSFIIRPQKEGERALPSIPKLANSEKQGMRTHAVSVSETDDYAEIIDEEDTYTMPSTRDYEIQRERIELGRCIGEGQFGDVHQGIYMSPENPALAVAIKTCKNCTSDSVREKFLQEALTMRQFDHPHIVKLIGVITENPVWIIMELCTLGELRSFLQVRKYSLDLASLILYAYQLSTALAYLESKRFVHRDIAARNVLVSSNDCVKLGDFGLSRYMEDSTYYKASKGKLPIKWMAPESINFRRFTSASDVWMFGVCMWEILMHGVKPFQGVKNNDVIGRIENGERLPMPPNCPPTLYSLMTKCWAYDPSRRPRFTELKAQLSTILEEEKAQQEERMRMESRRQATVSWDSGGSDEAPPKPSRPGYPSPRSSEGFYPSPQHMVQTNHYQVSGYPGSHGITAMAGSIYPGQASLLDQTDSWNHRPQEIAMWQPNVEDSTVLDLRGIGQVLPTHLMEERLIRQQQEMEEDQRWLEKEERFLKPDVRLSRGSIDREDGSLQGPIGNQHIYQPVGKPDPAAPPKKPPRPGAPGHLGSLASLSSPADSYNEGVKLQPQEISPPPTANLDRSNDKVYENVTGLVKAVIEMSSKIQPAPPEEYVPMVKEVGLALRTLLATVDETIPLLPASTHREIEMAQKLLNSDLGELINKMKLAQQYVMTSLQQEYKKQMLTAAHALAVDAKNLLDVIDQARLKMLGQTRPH
Chain of Latent membrane protein 1 (P03230 whole entry): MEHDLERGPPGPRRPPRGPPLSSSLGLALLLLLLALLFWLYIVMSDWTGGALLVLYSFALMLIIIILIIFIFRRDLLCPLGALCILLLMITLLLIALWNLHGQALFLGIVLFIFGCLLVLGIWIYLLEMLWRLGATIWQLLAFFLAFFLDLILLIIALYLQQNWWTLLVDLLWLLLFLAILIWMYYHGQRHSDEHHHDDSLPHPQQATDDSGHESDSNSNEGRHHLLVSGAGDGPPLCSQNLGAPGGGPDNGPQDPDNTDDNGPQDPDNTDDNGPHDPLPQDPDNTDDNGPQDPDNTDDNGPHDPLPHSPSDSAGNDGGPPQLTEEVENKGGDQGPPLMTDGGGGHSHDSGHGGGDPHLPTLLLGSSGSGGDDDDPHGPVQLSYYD
Chain of Mitogen-activated protein kinase kinase kinase kinase 4 (O95819 whole entry): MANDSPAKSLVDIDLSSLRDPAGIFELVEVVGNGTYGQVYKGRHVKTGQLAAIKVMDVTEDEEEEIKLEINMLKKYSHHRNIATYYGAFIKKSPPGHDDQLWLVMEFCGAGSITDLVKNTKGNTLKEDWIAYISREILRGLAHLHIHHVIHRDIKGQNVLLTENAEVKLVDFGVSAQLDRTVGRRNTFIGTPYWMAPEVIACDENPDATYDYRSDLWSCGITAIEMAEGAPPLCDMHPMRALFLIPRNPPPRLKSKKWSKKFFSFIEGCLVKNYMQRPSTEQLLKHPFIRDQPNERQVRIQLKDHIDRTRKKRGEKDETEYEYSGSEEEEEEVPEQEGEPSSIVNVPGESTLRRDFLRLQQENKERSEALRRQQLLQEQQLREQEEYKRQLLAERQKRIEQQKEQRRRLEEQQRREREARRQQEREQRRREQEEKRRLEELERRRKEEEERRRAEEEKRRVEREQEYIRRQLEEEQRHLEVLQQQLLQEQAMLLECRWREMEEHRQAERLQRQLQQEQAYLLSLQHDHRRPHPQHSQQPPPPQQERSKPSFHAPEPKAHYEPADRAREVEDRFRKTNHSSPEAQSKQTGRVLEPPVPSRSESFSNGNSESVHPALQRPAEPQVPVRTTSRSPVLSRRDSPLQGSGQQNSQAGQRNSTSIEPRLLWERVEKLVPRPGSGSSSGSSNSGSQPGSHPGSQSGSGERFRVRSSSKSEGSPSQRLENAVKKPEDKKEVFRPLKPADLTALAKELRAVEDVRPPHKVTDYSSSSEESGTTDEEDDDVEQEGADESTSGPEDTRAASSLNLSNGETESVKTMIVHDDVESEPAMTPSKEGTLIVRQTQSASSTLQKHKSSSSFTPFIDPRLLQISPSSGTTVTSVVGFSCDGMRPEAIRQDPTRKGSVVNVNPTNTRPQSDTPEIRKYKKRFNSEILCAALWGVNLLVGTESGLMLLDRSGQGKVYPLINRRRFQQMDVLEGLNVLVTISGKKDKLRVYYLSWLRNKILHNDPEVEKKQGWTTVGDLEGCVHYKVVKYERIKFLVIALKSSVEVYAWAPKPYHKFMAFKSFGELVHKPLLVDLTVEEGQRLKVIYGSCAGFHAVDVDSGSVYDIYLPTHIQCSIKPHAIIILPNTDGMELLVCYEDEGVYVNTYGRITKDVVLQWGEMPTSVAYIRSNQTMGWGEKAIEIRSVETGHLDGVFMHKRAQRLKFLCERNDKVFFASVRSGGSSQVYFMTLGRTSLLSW
Chain of Cytochrome P450 3A4 (P08684 whole entry): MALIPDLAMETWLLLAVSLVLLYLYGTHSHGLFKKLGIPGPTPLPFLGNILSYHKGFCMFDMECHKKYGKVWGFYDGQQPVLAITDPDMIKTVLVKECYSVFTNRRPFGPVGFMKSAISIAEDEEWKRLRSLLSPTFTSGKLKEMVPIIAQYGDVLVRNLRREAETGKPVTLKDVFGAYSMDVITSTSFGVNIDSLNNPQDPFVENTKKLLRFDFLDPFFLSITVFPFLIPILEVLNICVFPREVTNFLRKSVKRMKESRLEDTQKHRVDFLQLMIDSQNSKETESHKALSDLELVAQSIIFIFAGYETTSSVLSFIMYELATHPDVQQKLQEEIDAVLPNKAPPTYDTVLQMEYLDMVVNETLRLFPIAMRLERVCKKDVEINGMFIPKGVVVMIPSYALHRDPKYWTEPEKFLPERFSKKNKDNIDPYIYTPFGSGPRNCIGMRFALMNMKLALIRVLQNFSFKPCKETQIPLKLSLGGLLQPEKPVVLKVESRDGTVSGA
Chain of Cell division cycle 7-related protein kinase (O00311 whole entry): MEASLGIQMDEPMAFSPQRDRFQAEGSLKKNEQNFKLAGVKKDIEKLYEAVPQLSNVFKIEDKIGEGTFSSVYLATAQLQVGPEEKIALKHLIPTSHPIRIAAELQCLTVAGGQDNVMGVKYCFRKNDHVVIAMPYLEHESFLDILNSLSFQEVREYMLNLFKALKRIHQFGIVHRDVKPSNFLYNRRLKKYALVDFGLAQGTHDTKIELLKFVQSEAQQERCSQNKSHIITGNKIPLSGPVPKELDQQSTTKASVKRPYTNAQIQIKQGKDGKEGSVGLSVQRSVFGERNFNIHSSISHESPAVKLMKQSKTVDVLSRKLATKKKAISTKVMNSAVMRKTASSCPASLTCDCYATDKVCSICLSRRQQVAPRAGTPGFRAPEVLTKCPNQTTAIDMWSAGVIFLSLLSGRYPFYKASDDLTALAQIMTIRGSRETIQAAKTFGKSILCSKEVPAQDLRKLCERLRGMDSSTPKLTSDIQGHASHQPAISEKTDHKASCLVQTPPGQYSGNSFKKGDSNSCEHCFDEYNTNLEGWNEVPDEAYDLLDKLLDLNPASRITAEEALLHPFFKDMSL
Chain of Wee1-like protein kinase (P30291 whole entry): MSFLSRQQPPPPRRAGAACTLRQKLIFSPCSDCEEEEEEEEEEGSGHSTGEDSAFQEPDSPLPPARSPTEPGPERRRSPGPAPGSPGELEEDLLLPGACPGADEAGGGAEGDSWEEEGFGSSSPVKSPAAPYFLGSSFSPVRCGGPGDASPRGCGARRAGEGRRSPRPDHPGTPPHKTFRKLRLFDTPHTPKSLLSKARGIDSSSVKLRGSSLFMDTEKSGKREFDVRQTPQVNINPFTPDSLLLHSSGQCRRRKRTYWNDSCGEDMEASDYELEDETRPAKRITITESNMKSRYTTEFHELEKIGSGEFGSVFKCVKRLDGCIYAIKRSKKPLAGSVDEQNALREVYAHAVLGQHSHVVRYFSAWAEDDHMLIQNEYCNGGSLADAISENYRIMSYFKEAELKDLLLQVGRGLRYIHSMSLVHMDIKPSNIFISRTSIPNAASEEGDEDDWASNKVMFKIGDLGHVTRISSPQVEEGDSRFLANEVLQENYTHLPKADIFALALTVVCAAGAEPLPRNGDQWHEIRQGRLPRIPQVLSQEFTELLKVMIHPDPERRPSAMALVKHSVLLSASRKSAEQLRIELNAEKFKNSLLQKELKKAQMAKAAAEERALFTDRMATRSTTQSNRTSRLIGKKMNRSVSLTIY

In the case of O=C1C(=O)N(Cc2ccc(Cl)c(Cl)c2)c2ccccc21, the IC50 [1] is reported as 22.7 µM (active), the IC50 [2] is reported as 34 µM (active) and the AC50 [3] is reported as 7.94 µM (inconclusive).

For N#Cc1cccc(Nc2ncnc(Nc3ccc(F)cc3)n2)c1, the Ki [4] was > 3.16 µM (inactive) and the Ki [5] was 0.1 µM (active).

For COc1ccc(-c2sc3cc4c(cc3c2-c2ccc(OCCN3CCCCC3)cc2)OCO4)cc1, the EC50 [6] was 0.062 µM (active).

For O=C(c1ccc(Cl)cc1)N1CCN(c2ccccn2)CC1, the AC50 [7] was 12 µM (active), the AC50 [8] was 28.1 µM (active) and the AC50 [9] was 24.5 µM (active). For the same compound, the AC50 [10] was 0.64 µM (active).

For CCOc1ccc(-c2nc(CSCC(=O)N3CCCC3)c(C)o2)cc1, the IC50 [11] was 46.6 µM (inactive), the IC50 [12] was > 80 µM (inactive) and the IC50 [13] was > 80 µM (inactive).

With Cc1nc2cc(-c3nc4cc(NC(=O)c5cccs5)ccc4[nH]3)ccc2[nH]1 the IC50 [14] was 41.2 µM (active).

With CCC(=O)Nc1cccc(-c2nnc(SCC(=O)NCc3ccco3)n2C)c1 the IC50 [15] was 4.37 µM (active), the IC50 [16] was 1.93 µM (active) and the IC50 [17] was 5.36 µM (active). For the same compound, the IC50 [18] was 1.07 µM (active), the IC50 [19] was 1.5 µM (active) and the IC50 [20] was 0.695 µM (active).

With CCCc1sc(N/N=C/c2ccccn2)nc1-c1ccc(F)cc1 the EC50 [21] was 7.2 µM (active), the EC50 [22] was 19.4 µM (active) and the EC50 [23] was 6.54 µM (active). For the same compound, the EC50 [24] was 7.71 µM (active), the AC50 [25] was 0.904 µM (active) and the EC50 [26] was 74.4 µM (active). For the same compound, the EC50 [27] was 38.1 µM (active), the EC50 [28] was > 150 µM (not active) and the EC50 [29] was 19.9 µM (active). For the same compound, the EC50 [30] was 10.7 µM (active) and the EC50 [31] was 10.8 µM (active).

For O=C1CN(C(=O)c2ccc(F)c(S(=O)(=O)N3CCOCC3)c2)c2ccccc2N1, the AC50 [32] was 48.3 µM (active).

In the case of O=C(Cc1ccccc1)Nc1cccc(-c2nc3sccn3c2-c2ccnc(Nc3ccccc3Cl)n2)c1, the Ki [33] is reported as 0.501 µM (active), the Ki [34] is reported as 0.631 µM (active) and the Ki [35] is reported as > 5.01 µM (inactive). For the same compound, the Ki [36] was > 6.31 µM (inactive), the Ki [37] was 3.16 µM (active) and the Ki [38] was > 6.31 µM (inactive). The Ki [39] was 1.26 µM (active), the Ki [40] was > 6.31 µM (inactive) and the Ki [41] was > 5.01 µM (inactive). The Ki [42] was > 6.31 µM (inactive).
